The values that follow come from publication PMC5794489 (Biochemical pharmacology, 2017).

Entries after “also recorded” stand apart in the source; their conditions may differ. *1 amine or outer side, *2 acyl side, *3 side chain or, on linkers, in order; H or OH if unused. Where a SMILES comes first, the peptide text is derived from it. [ ]: non-standard residue; d: D form. X1 = O=C([C@H]1CCC[C@@H]1N[*:1])[*:2]; X2 = O=C([C@H]1CNC[C@@H]1N[*:1])[*:2]; Aib = CC(C)(N)C(=O)O

Test [1] concerns the target T1, human GLP-1R (Homo sapiens, UniProt P43220). Put plainly: Radioligand competition binding on whole GLP-1R FlpInCHO cells. Particulars: GLP-1R in FlpIn CHO cells. In general terms: In a radioligand displacement assay an active substance lowers the binding of a labelled ligand.
For test [2], the target named is T1, human GLP-1R. Put plainly: cAMP accumulation in GLP-1R FlpInCHO cells. The class given is cell-based. To be noted: Flp-In-CHO, read-out: cAMP Emax. (Changes in cAMP serve as a functional read-out for many G protein-coupled receptors.)
Test [3] addresses T1, human GLP-1R. Put plainly: Intracellular calcium mobilization. The class given is cell-based. To be noted: for Emax: read-out: iCa2+ Emax. Background: Calcium assays in cells follow changes in intracellular calcium, usually with a dye or a luminescent sensor.
Test [4] has as its target T1, human GLP-1R. Put plainly: ERK1/2 phosphorylation. The class given is cell-based. Particulars: read-out: pERK1/2 Emax.
The test system of test [5] is human GLP-1R. Put plainly: Stimulus bias, operational model of agonism, Δlog. The class given is cell-based. Particulars: bias relative to GLP-1; FlpInCHO; mean ± SEM, three to four experiments.
Test [6] concerns the target T1, human GLP-1R. Put plainly: β-Arrestin-1 recruitment BRET assay. Particulars: for Emax: read-out: β-Arrestin-1 Emax.
The target of test [7] is T1, human GLP-1R. Put plainly: β-Arrestin-2 recruitment BRET assay. Particulars: for β-arrestin-2 recruitment, result in words: FlpInCHO BRET, native β-arrestin-2; for Emax: read-out: β-Arrestin-2 Emax.
In test [8] the test system is human GLP-1R. Particulars: FlpIn CHO cells; cited from earlier work.

T1 sequence (P43220 24-463): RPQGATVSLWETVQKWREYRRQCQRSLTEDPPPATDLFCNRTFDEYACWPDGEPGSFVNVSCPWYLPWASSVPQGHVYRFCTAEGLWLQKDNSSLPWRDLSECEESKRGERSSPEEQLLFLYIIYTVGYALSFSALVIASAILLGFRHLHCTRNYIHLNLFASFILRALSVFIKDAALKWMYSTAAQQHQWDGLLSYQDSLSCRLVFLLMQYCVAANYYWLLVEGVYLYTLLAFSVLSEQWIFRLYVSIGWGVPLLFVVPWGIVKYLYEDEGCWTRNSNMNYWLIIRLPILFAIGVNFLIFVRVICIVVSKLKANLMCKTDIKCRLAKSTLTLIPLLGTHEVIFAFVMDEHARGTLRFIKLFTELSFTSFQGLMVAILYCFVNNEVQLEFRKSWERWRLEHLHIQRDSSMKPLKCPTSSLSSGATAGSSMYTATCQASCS

Take `CC[C@H](C)[C@H](NC(=O)[C@H](Cc1ccccc1)NC(=O)[C@H](CCC(=O)O)NC(=O)[C@H]1CNC[C@@H]1NC(=O)[C@H](C)NC(=O)[C@H](C)NC(=O)[C@H](CCC(N)=O)NC(=O)[C@H]1CCC[C@@H]1NC(=O)[C@H](CCC(=O)O)NC(=O)[C@H](CC(C)C)NC(=O)[C@H](Cc1ccc(O)cc1)NC(=O)[C@H]1CCC[C@@H]1NC(=O)[C@H](CO)NC(=O)C(C)(C)NC(=O)[C@H](CC(=O)O)NC(=O)[C@H](CO)NC(=O)[C@@H](NC(=O)[C@H](Cc1ccccc1)NC(=O)[C@@H](NC(=O)CNC(=O)[C@H](CCC(=O)O)NC(=O)C(C)(C)NC(=O)[C@@H](N)Cc1c[nH]cn1)[C@@H](C)O)[C@@H](C)O)C(=O)N[C@H]1CCC[C@@H]1C(=O)N[C@@H](Cc1c[nH]c2ccccc12)C(=O)N[C@@H](CC(C)C)C(=O)N[C@H](C(=O)N[C@H]1CNC[C@@H]1C(=O)NCC(=O)N[C@@H](CCCNC(=N)N)C(=O)NCC(N)=O)C(C)C` [P4] (H-H[Aib]EGTFTSD[Aib]S[X1]YLE[X1]QAA[X2]EFI[X1]WLV[X2]GRG-NH2): the “further reduction in affinity relative to other α/β-peptides in this set” value on human GLP-1R [1] was 10 fold. Moreover, the Emax on human GLP-1R [2] is 97 ± 7%; at human GLP-1R [3] it was 90 ± 40%; at human GLP-1R [4], 81 ± 8%. In addition, the “Δlog(τ/KA) Ca2+ vs cAMP” value in the test on human GLP-1R [5] is −0.2 ± 0.2. The “β-arrestin-1 recruitment, result in words” value at human GLP-1R [6] (FlpInCHO BRET) is listed as “no measurable signal”. Also, the “β-arrestin-2 recruitment, result in words” value (“β-arrestin-2 recruitment” below) on human GLP-1R [7] is recorded as “weak β-arrestin-2 responses; also recorded: no measurable signal”.
As for “oxyntomodulin (HSQGTFTSDYSKYLDSRRAQDFVQWLMNTKRNRNNIA; Oxyntomodulin; UniProt P01275 53-89, looked up)”, in the test with human GLP-1R [8], the “bias ERK1/2 phosphorylation over cAMP accumulation, in words” value is recorded as “biases the GLP-1R toward ERK1/2 phosphorylation over cAMP accumulation”.
As to `CC[C@H](C)[C@H](NC(=O)[C@H](Cc1ccccc1)NC(=O)[C@H](CCC(=O)O)NC(=O)[C@H]1CNC[C@@H]1NC(=O)[C@H](C)NC(=O)[C@H](C)NC(=O)[C@H](CCC(N)=O)NC(=O)[C@H]1CCC[C@@H]1NC(=O)[C@H](CCC(=O)O)NC(=O)[C@H](CC(C)C)NC(=O)[C@H](Cc1ccc(O)cc1)NC(=O)[C@H]1CCC[C@@H]1NC(=O)[C@H](CO)NC(=O)[C@@H](NC(=O)[C@H](CC(=O)O)NC(=O)[C@H](CO)NC(=O)[C@@H](NC(=O)[C@H](Cc1ccccc1)NC(=O)[C@@H](NC(=O)CNC(=O)[C@H](CCC(=O)O)NC(=O)[C@H](C)NC(=O)[C@@H](N)Cc1c[nH]cn1)[C@@H](C)O)[C@@H](C)O)C(C)C)C(=O)N[C@H]1CCC[C@@H]1C(=O)N[C@@H](Cc1c[nH]c2ccccc12)C(=O)N[C@@H](CC(C)C)C(=O)N[C@H](C(=O)N[C@@H](CCCCN)C(=O)NCC(=O)N[C@@H](CCCNC(=N)N)C(=O)NCC(N)=O)C(C)C` [P9] (H-HAEGTFTSDVS[X1]YLE[X1]QAA[X2]EFI[X1]WLVKGRG-NH2), the “reduction in affinity relative to GLP-1” value on human GLP-1R [1] is ~ 10 fold. The Emax on human GLP-1R [2] amounted to 107 ± 5%; at human GLP-1R [4] it was 73 ± 9%. On human GLP-1R [3] (FlpIn CHO human GLP-1R), the “calcium mobilization, result in words” value was “essentially abolished calcium mobilization”. Also, in the test on human GLP-1R [5], the “Δlog(τ/KA) βArr1 vs pERK1/2” value is given as −0.1 ± 0.5. Besides, the “β-arrestin-2 recruitment” value on human GLP-1R [7] is reported as “weak β-arrestin-2 responses”.
On to `CC[C@H](C)[C@H](NC(=O)[C@H](Cc1ccccc1)NC(=O)[C@H](CCC(=O)O)NC(=O)[C@H]1CNC[C@@H]1NC(=O)[C@H](C)NC(=O)[C@H](C)NC(=O)[C@H](CCC(N)=O)NC(=O)[C@H]1CCC[C@@H]1NC(=O)[C@H](CCC(=O)O)NC(=O)[C@H](CC(C)C)NC(=O)[C@H](Cc1ccc(O)cc1)NC(=O)[C@H]1CCC[C@@H]1NC(=O)[C@H](CO)NC(=O)[C@@H](NC(=O)[C@H](CC(=O)O)NC(=O)[C@H](CO)NC(=O)[C@@H](NC(=O)[C@H](Cc1ccccc1)NC(=O)[C@@H](NC(=O)CNC(=O)[C@H](CCC(=O)O)NC(=O)[C@H](C)NC(=O)[C@@H](N)Cc1c[nH]cn1)[C@@H](C)O)[C@@H](C)O)C(C)C)C(=O)N[C@H]1CCC[C@@H]1C(=O)N[C@@H](Cc1c[nH]c2ccccc12)C(=O)N[C@@H](CC(C)C)C(=O)N[C@H](C(=O)N[C@H]1CNC[C@@H]1C(=O)NCC(=O)N[C@@H](CCCNC(=N)N)C(=O)NCC(N)=O)C(C)C` [P3], for which, in the test with human GLP-1R [5], the “Δlog(τ/KA) βArr1 vs pERK1/2” value is recorded as −0.1 ± 0.3, the “Δlog(τ/KA) βArr2 vs cAMP” value was 0.5 ± 0.3 and the “Δlog(τ/KA) βArr2 vs pERK1/2” value was −0.6 ± 0.2.
For exendin-4, in the test with human GLP-1R [8], the “bias ERK1/2 phosphorylation over cAMP accumulation, in words” value is on record as “does not exhibit bias toward ERK1/2 phosphorylation”.
Turning to `CC[C@H](C)[C@H](NC(=O)[C@H](Cc1ccccc1)NC(=O)[C@H](CCC(=O)O)NC(=O)[C@H]1CNC[C@@H]1NC(=O)[C@H](C)NC(=O)[C@H](C)NC(=O)[C@H](CCC(N)=O)NC(=O)[C@H]1CCC[C@@H]1NC(=O)[C@H](CCC(=O)O)NC(=O)[C@H](CC(C)C)NC(=O)[C@H](Cc1ccc(O)cc1)NC(=O)[C@H]1CCC[C@@H]1NC(=O)[C@H](CO)NC(=O)[C@@H](NC(=O)[C@H](CC(=O)O)NC(=O)[C@H](CO)NC(=O)[C@@H](NC(=O)[C@H](Cc1ccccc1)NC(=O)[C@@H](NC(=O)CNC(=O)[C@H](CCC(=O)O)NC(=O)[C@H](C)NC(=O)[C@@H](N)Cc1c[nH]cn1)[C@@H](C)O)[C@@H](C)O)C(C)C)C(=O)N[C@@H](C)C(=O)N[C@@H](Cc1c[nH]c2ccccc12)C(=O)N[C@@H](CC(C)C)C(=O)N[C@H](C(=O)N[C@@H](CCCCN)C(=O)NCC(=O)N[C@@H](CCCNC(=N)N)C(=O)NCC(N)=O)C(C)C` [P8] (H-HAEGTFTSDVS[X1]YLE[X1]QAA[X2]EFIAWLVKGRG-NH2), the “reduction in affinity relative to GLP-1” value at human GLP-1R [1] is on record as ~ 10 fold. In addition, the Emax on human GLP-1R [2] was found to be 83 ± 5%. Besides, the Emax on human GLP-1R [4] was determined as 80 ± 8%. In the test with human GLP-1R [5], the “Δlog(τ/KA) pERK1/2 vs cAMP” value is listed as 0.7 ± 0.3 and the “Δlog(τ/KA) βArr1 vs pERK1/2” value turned out to be 0.0 ± 0.3. Further, the “β-arrestin-2 recruitment” value on human GLP-1R [7] is recorded as “weak β-arrestin-2 responses”.
Consider `CC[C@H](C)[C@H](NC(=O)[C@H](Cc1ccccc1)NC(=O)[C@H](CCC(=O)O)NC(=O)[C@H]1CNC[C@@H]1NC(=O)[C@H](C)NC(=O)[C@H](C)NC(=O)[C@H](CCC(N)=O)NC(=O)CNC(=O)[C@H](CCC(=O)O)NC(=O)[C@H](CC(C)C)NC(=O)[C@H](Cc1ccc(O)cc1)NC(=O)[C@H](CO)NC(=O)[C@H](CO)NC(=O)[C@@H](NC(=O)[C@H](CC(=O)O)NC(=O)[C@H](CO)NC(=O)[C@@H](NC(=O)[C@H](Cc1ccccc1)NC(=O)[C@@H](NC(=O)CNC(=O)[C@H](CCC(=O)O)NC(=O)[C@H](C)NC(=O)[C@@H](N)Cc1c[nH]cn1)[C@@H](C)O)[C@@H](C)O)C(C)C)C(=O)N[C@H]1CCC[C@@H]1C(=O)N[C@@H](Cc1c[nH]c2ccccc12)C(=O)N[C@@H](CC(C)C)C(=O)N[C@H](C(=O)N[C@H]1CNC[C@@H]1C(=O)NCC(=O)N[C@@H](CCCNC(=N)N)C(=O)NCC(N)=O)C(C)C` [P1] (H-HAEGTFTSDVSSYLEGQAA[X2]EFI[X1]WLV[X2]GRG-NH2), for which the Emax on human GLP-1R [3] is 89 ± 8%. Further, on human GLP-1R [4], the Emax was found to be 112 ± 8%. In the test on human GLP-1R [5], the “Δlog(τ/KA) Ca2+ vs cAMP” value is given as 0.4 ± 0.1, the “Δlog(τ/KA) pERK1/2 vs cAMP” value came to 0.5 ± 0.2, the “Δlog(τ/KA) βArr1 vs Ca2+” value is listed as −0.1 ± 0.2 and the “Δlog(τ/KA) βArr1 vs cAMP” value is 0.4 ± 0.1. In the test on human GLP-1R [5], the “Δlog(τ/KA) βArr1 vs pERK1/2” value is recorded as 0.0 ± 0.2, the “Δlog(τ/KA) βArr2 vs Ca2+” value is given as −0.2 ± 0.2, the “Δlog(τ/KA) βArr2 vs cAMP” value is on record as 0.5 ± 0.2 and the “Δlog(τ/KA) βArr2 vs pERK1/2” value was −0.1 ± 0.3. Besides, on human GLP-1R [6], the Emax worked out at 85 ± 7%. Moreover, on human GLP-1R [7], the Emax is 108 ± 5%.
`CC[C@H](C)[C@H](NC(=O)[C@H](Cc1ccccc1)NC(=O)[C@H](CCC(=O)O)NC(=O)[C@H](CCCCN)NC(=O)[C@H](C)NC(=O)[C@H](C)NC(=O)[C@H](CCC(N)=O)NC(=O)CNC(=O)[C@H](CCC(=O)O)NC(=O)[C@H](CC(C)C)NC(=O)[C@H](Cc1ccc(O)cc1)NC(=O)[C@H](CO)NC(=O)[C@H](CO)NC(=O)C(C)(C)NC(=O)[C@H](CC(=O)O)NC(=O)[C@H](CO)NC(=O)[C@@H](NC(=O)[C@H](Cc1ccccc1)NC(=O)[C@@H](NC(=O)CNC(=O)[C@H](CCC(=O)O)NC(=O)C(C)(C)NC(=O)[C@@H](N)Cc1c[nH]cn1)[C@@H](C)O)[C@@H](C)O)C(=O)N[C@@H](C)C(=O)N[C@@H](Cc1c[nH]c2ccccc12)C(=O)N[C@@H](CC(C)C)C(=O)N[C@H](C(=O)N[C@@H](CCCCN)C(=O)NCC(=O)N[C@@H](CCCNC(=N)N)C(=O)NCC(N)=O)C(C)C` [P6]: on human GLP-1R [3], the Emax was determined as 78 ± 5%. In addition, the Emax at human GLP-1R [4] was determined as 80 ± 7%. Besides, in the test on human GLP-1R [5], the “Δlog(τ/KA) Ca2+ vs cAMP” value was −0.1 ± 0.2, the “Δlog(τ/KA) pERK1/2 vs cAMP” value came to 0.1 ± 0.2, the “Δlog(τ/KA) βArr1 vs cAMP” value came out at 0.4 ± 0.1 and the “Δlog(τ/KA) βArr1 vs pERK1/2” value is on record as 0.5 ± 0.3. Also, in the test on human GLP-1R [5], the “Δlog(τ/KA) βArr2 vs Ca2+” value is 0.0 ± 0.2, the “Δlog(τ/KA) βArr2 vs cAMP” value is on record as −0.1 ± 0.2 and the “Δlog(τ/KA) βArr2 vs pERK1/2” value is reported as −0.3 ± 0.2. Moreover, on human GLP-1R [6], the Emax was 72 ± 4%. Further, the Emax at human GLP-1R [7] came out at 82 ± 5%.
